# Results as given in patent publication US9296684B2, “Allyl 2-cyanoacrylate prepolymer, preparation method thereof, and bioadhesive composition comprising the prepolymer” (UNIVERSITY-INDUSTRY COOPERATION GROUP OF KYUNG HEE …, priority 2011, dated 2016).
# Test: Change of viscosity according to time for heating 2-cyanoacrylate prepolymer
# Format: physicochemical
# Conditions: heated at 150° C., FIG. 1
# Method: 10 ml of an allyl 2-cyanoacrylate was added to a glass test tube and then sealed in a vacuum state. The sealed glass test tube was put in an oil bath of 150° C. to heat it for 5, 10, 20, 30, 40, 50, 60, and 70 minutes. The heated cyanoacrylate per each given period of time was cooled at room temperature and then the change in viscosity was observed.
# An ethyl 2-cyanoacrylate was heated; then the heated cyanoacrylate per each given period of time was cooled at room temperature, and then the change in viscosity was observed, by using an identical method as in Example 1 described above, with the exception that ethyl 2-cyanoacrylate was used instead of allyl 2-cyanoacrylate.
# The results of investigating the change in viscosity according to time of heating the 2-cyanoacrylate prepolymer in Example 1 and Comparative Example 1 are shown in FIG. 1. Furthermore, the values of viscosity according to time of heating the 2-cyanoacrylate prepolymer in Example 1 are shown in the following Table 1.
structure (smiles),measurement,value
C=C(C#N)C(=O)OCC [ethyl 2-cyanoacrylate],change in viscosity with greater heating time,no increase in the viscosity
